Data taken from ChEMBL document CHEMBL3244341, “Potential antiinflammatory compounds. 2. Acidic antiinflammatory 1,2-benzisoxazoles” (J Med Chem, 1979).
Active and inactive are the calls of the source. The calls are words filed in the database; no cut-off is given here.

Columns and labels:
Rattus norvegicus [1] = assay: Antiinflammatory activity in rat assessed as reduction in carrageenan-induced foot edema at 50 mg/kg, po bid administered 3 hrs and again 0.5 hrs prior to carrageenan challenge; assay type: functional
[2] = Toxicity in po dosed mouse; assay type: organism-based; conditions: in vivo
Rattus norvegicus [3] = assay: Antiinflammatory activity in rat assessed as reduction in carrageenan-induced foot edema at 50 mg/kg, po bid administered 3 hrs and again 0.5 hrs prior to carrageenan challenge relative to phenylbutazone-treated control; assay type: functional
Rattus norvegicus [4] = assay: Antiinflammatory activity in rat assessed as reduction in carrageenan-induced foot edema at 50 mg/kg, po; assay type: functional
Rattus norvegicus [5] = assay: Antiinflammatory activity in rat assessed as reduction in carrageenan-induced foot edema at 50 mg/kg, po relative to hydrocortisone-treated control; assay type: functional
Rattus norvegicus [6] = assay: Antiinflammatory activity in rat assessed as reduction in carrageenan-induced foot edema at 50 mg/kg, po relative to phenylbutazone-treated control; assay type: functional
Rattus norvegicus [7] = assay: Antiinflammatory activity in rat assessed as reduction in carrageenan-induced foot edema at 25 mg/kg, po; assay type: functional
Rattus norvegicus [8] = species on record: Rattus norvegicus; assay: Antiinflammatory activity against mycobacterial adjuvant-induced arthritis in albino rat assessed as reduction in foot swelling by micrometer analysis; assay type: functional, organism-based

For `O=C(O)Cc1ccc2onc(-c3ccc(Cl)cc3)c2c1`, which inhibition in vivo at 50 mg/kg (Rattus norvegicus [1]) is on record?
Its inhibition in vivo at 50 mg/kg is 22%.

What about the LD50 [2] of the same compound?
The LD50 was 600 mg/kg.

What about the inhibition in vivo at 50 mg/kg (Rattus norvegicus [3]) of the same compound?
The inhibition in vivo at 50 mg/kg was 36%.

Which results are given for `CC(C(=O)O)c1ccc2c(-c3ccc(Cl)cc3)noc2c1` (configuration not stated)?
inhibition in vivo at 50 mg/kg (Rattus norvegicus [4]): 46%; inhibition in vivo at 50 mg/kg (Rattus norvegicus [5]): 38%; LD50 [2]: 600 mg/kg

Which results are given for `CC(C(=O)O)c1ccc2c(-c3ccc(F)cc3)noc2c1` (configuration not stated)?
inhibition in vivo at 50 mg/kg (Rattus norvegicus [4]): 37%; inhibition in vivo at 50 mg/kg (Rattus norvegicus [6]): 57%; LD50 [2]: 400 mg/kg

For `CC(C(=O)O)c1ccc2onc(-c3ccc(Cl)cc3)c2c1` (configuration not stated), which inhibition in vivo at 50 mg/kg (Rattus norvegicus [4]) is on record?
Its inhibition in vivo at 50 mg/kg is 18%.

What about the inhibition in vivo at 50 mg/kg (Rattus norvegicus [5]) of the same compound?
Its inhibition in vivo at 50 mg/kg is 38%.

What about the LD50 [2] of the same compound?
Its LD50 is 800 mg/kg.

Which results are given for `O=C(O)Cc1cccc2c(-c3ccc(Cl)cc3)noc12`?
inhibition in vivo at 50 mg/kg (Rattus norvegicus [4]): 36%; inhibition in vivo at 50 mg/kg (Rattus norvegicus [6]): 49%; LD50 [2]: 600 mg/kg

For `CC(C(=O)O)c1cccc2c(-c3ccccc3)noc12` (configuration not stated), which inhibition in vivo at 50 mg/kg (Rattus norvegicus [4]) is on record?
The inhibition in vivo at 50 mg/kg was 42%.

And the inhibition in vivo at 50 mg/kg (Rattus norvegicus [6])?
The inhibition in vivo at 50 mg/kg was 32%.

What about the LD50 [2] of the same compound?
The LD50 was 1600 mg/kg.

For `CC(C(=O)O)c1cccc2c(-c3ccc(Cl)cc3)noc12` (configuration not stated), which inhibition in vivo at 25 mg/kg (Rattus norvegicus [7]) is on record?
Its inhibition in vivo at 25 mg/kg is 46%.

And the inhibition in vivo at 50 mg/kg (Rattus norvegicus [6])?
The inhibition in vivo at 50 mg/kg was 48%.

And the LD50 [2]?
The LD50 was 200 mg/kg.

And the inhibition (Rattus norvegicus [8])?
Its inhibition is “Active”.
